In ChEMBL document CHEMBL1126161, “3,4-Dihydroquinolin-2(1H)-ones as combined inhibitors of thromboxane A2 synthase and cAMP phosphodiesterase” (J Med Chem, 1992):
pIC50: −log10 of the molar value.

What was measured:
Rattus norvegicus [1] = experiment: Antihypertensive activity in conscious spontaneously hypertensive rat (SHR), percent change in heart rate (beats/min) after 4 hr at 0.3 mg/kg peroral dose; type: functional; settings: route oral
Rattus norvegicus [2] = experiment: Antihypertensive activity in conscious spontaneously hypertensive rat (SHR), percent change in heart rate (beats/min) after 1 hr at 3 mg/kg peroral dose; type: functional; settings: route oral
Homo sapiens [3] = species on record: Homo sapiens; experiment: Inhibition of ADP-induced aggregation of human PRP in the absence of pig aortal microsomes (PAM); type: functional
Mus musculus [4] = experiment: Protection against mortality in pulmonary thromboembolism model in mice at 1 mg/kg; type: functional
Mus musculus [5] = experiment: Protection against mortality in pulmonary thromboembolism model in mice at 30 mg/kg; type: functional
Mus musculus [6] = experiment: Protection against mortality in pulmonary thromboembolism model in mice at 10 mg/kg; type: functional
Mus musculus [7] = experiment: Time course of protection against mortality in a pulmonary thromboembolism model in mice after -1 hr at 10 mg/kg; type: functional
Mus musculus [8] = experiment: Time course of protection against mortality in a pulmonary thromboembolism model in mice after -5 hr at 10 mg/kg; type: functional
Mus musculus [9] = experiment: Protection against mortality in pulmonary thromboembolism model in mice at 6 mg/kg; type: functional
Rattus norvegicus [10] = experiment: Antihypertensive activity in conscious spontaneously hypertensive rat (SHR), percent change in heart rate (beats/min) after 8 hr at 1 mg/kg peroral dose; type: functional; settings: route oral
Rattus norvegicus [11] = experiment: Antihypertensive activity in conscious spontaneously hypertensive rat (SHR), percent change in heart rate (beats/min) after 12 hr at 3 mg/kg peroral dose; type: functional; settings: route oral
Rattus norvegicus [12] = experiment: Antihypertensive activity in conscious spontaneously hypertensive rat (SHR), percent change in heart rate (beats/min) after 2 hr at 3 mg/kg peroral dose; type: functional; settings: route oral
Rattus norvegicus [13] = experiment: Antihypertensive activity in conscious spontaneously hypertensive rat (SHR), percent change in heart rate (beats/min) after 8 hr at 3 mg/kg peroral dose; type: functional; settings: route oral
Rattus norvegicus [14] = experiment: Antihypertensive activity in conscious spontaneously hypertensive rat (SHR), percent change in heart rate (beats/min) after 12 hr at 10 mg/kg peroral dose; type: functional; settings: route oral
Rattus norvegicus [15] = experiment: Antihypertensive activity in conscious spontaneously hypertensive rat (SHR), percent change in heart rate (beats/min) after 2 hr; type: functional
Rattus norvegicus [16] = experiment: Antihypertensive activity in conscious spontaneously hypertensive rat (SHR), percent change in heart rate (beats/min) after 2 hr at 0.3 mg/kg peroral dose; type: functional; settings: route oral
Rattus norvegicus [17] = experiment: Antihypertensive activity in conscious spontaneously hypertensive rat (SHR), percent change in heart rate (beats/min) after 1 hr at 10 mg/kg peroral dose; type: functional; settings: route oral
Rattus norvegicus [18] = experiment: Antihypertensive activity in conscious spontaneously hypertensive rat (SHR), percent change in heart rate (beats/min) after 2 hr at 10 mg/kg peroral dose; type: functional; settings: route oral
Rattus norvegicus [19] = experiment: Antihypertensive activity in conscious spontaneously hypertensive rat (SHR), percent change in heart rate (beats/min) after 4 hr at 10 mg/kg peroral dose; type: functional; settings: route oral
Rattus norvegicus [20] = experiment: Antihypertensive activity in conscious spontaneously hypertensive rat (SHR), percent change in heart rate (beats/min) after 1 hr at 1 mg/kg peroral dose; type: functional; settings: route oral
Rattus norvegicus [21] = experiment: Antihypertensive activity in conscious spontaneously hypertensive rat (SHR), percent change in Systolic blood pressure (SBP) at 0.3 mg/kg peroral dose after 1 hr; type: functional; settings: route oral
Rattus norvegicus [22] = experiment: (§1) Antihypertensive activity in conscious spontaneously hypertensive rat (SHR), percent change in Systolic blood pressure (SBP) at 0.3 mg/kg peroral dose after 8 hr; type: functional; settings: route oral
Rattus norvegicus [23] = experiment: Antihypertensive activity in conscious spontaneously hypertensive rat (SHR), percent change in Systolic blood pressure (SBP) at 1 mg/kg peroral dose after 2 hr; type: functional; settings: route oral
Rattus norvegicus [24] = experiment: Antihypertensive activity in conscious spontaneously hypertensive rat (SHR), percent change in Systolic blood pressure (SBP) at 1 mg/kg peroral dose after 8 hr; type: functional; settings: route oral
Rattus norvegicus [25] = experiment: (§2) Antihypertensive activity in conscious spontaneously hypertensive rat (SHR), percent change in Systolic blood pressure (SBP) at 3 mg/kg peroral dose after 2 hr; type: functional; settings: route oral
Rattus norvegicus [26] = experiment: Antihypertensive activity in conscious spontaneously hypertensive rat (SHR), percent change in Systolic blood pressure (SBP) at 3 mg/kg peroral dose after 8 hr; type: functional; settings: route oral
Rattus norvegicus [27] = experiment: Antihypertensive activity in conscious spontaneously hypertensive rat (SHR), percent change in Systolic blood pressure (SBP) at 1 mg/kg peroral dose after 12 hr; type: functional; settings: route oral
Rattus norvegicus [28] = experiment: Ex vivo inhibition of blood platelet aggregation in rats at 50 mg/kg peroral dose 8 hr; type: functional; settings: route oral
Rattus norvegicus [29] = experiment: Ex vivo inhibition of blood platelet aggregation in rats at 50 mg/kg peroral dose after 3 hr; type: functional; settings: route oral
Rattus norvegicus [30] = experiment: Ex vivo inhibition of blood platelet aggregation in rats at 50 mg/kg peroral dose after 5 hr; type: functional; settings: route oral
Rattus norvegicus [31] = experiment: (§3) Antihypertensive activity in conscious spontaneously hypertensive rat (SHR), percent change in Systolic blood pressure (SBP) at 0.3 mg/kg peroral dose after 12 hr; type: functional; settings: route oral
Rattus norvegicus [32] = experiment: Antihypertensive activity in conscious spontaneously hypertensive rat (SHR), percent change in Systolic blood pressure (SBP) at 0.3 mg/kg peroral dose after 4 hr; type: functional; settings: route oral
Rattus norvegicus [33] = experiment: as §1; type: functional; settings: route oral; remark: listed apart in the source
Rattus norvegicus [34] = experiment: as §3; type: functional; settings: route oral; remark: listed apart in the source
Thromboxane-A synthase = molecular target: T1, Thromboxane-A synthase (Homo sapiens, UniProt P24557); experiment: Compound was evaluated for the inhibition of human blood platelet thromboxane A2 synthase
T1 sequence (P24557 whole entry): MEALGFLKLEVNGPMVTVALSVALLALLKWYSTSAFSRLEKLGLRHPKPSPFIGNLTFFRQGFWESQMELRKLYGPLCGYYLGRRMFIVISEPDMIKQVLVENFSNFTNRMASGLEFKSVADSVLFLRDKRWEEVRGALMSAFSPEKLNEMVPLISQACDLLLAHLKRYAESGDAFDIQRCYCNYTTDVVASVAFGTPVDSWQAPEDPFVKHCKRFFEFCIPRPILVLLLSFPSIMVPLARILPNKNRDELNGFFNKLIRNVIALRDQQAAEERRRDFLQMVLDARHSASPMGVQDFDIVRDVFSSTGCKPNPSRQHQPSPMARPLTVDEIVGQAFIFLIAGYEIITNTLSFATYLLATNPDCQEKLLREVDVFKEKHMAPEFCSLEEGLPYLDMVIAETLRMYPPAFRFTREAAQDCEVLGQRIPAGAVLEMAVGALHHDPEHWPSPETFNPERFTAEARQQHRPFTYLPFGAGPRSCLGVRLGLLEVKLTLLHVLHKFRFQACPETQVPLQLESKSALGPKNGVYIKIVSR

Rattus norvegicus [35] = experiment: as §2; type: functional; settings: route oral; remark: listed apart in the source
Homo sapiens [36] = species on record: Homo sapiens; experiment: Ratio of IC50(PDE)/IC50(TXA2); type: functional
Homo sapiens [37] = species on record: Homo sapiens; experiment: Ratio of IC50(w/oPAM)/IC50(w/PAM); type: functional
Rattus norvegicus [38] = experiment: Antihypertensive activity in conscious spontaneously hypertensive rat (SHR), percent change in heart rate (beats/min) after 12 hr at 1 mg/kg peroral dose; type: functional; settings: route oral
Mus musculus [39] = experiment: Protection against mortality in pulmonary thromboembolism model in mice at 12 mg/kg; type: functional
Homo sapiens [40] = species on record: Homo sapiens; experiment: Inhibition of [14C]arachidonic acid induced TXB2 formation at 5 uM (Control TXB2 = 14.9+/-2.5)

Q: Which results are given for O=C1CCc2cc(/C=C/n3ccnc3)ccc2N1?
A: Change in heart rate (Rattus norvegicus [1]): -4%; Change in heart rate (Rattus norvegicus [2]): -34%; pIC50 (Homo sapiens [3]): 5.25; survival at 1 mg/kg (Mus musculus [4]): 10%; survival at 30 mg/kg (Mus musculus [5]): 20%; survival at 10 mg/kg (Mus musculus [6]): 90%; survival at 10 mg/kg (Mus musculus [7]): 50%; survival at 10 mg/kg (Mus musculus [8]): 60%; survival at 6 mg/kg (Mus musculus [9]): 50%; Change in heart rate (Rattus norvegicus [10]): -5%; Change in heart rate (Rattus norvegicus [11]): 8%; Change in heart rate (Rattus norvegicus [12]): 10%; Change in heart rate (Rattus norvegicus [13]): 21%; Change in heart rate (Rattus norvegicus [14]): 29%; Change in heart rate (Rattus norvegicus [15]): 11%; Change in heart rate (Rattus norvegicus [16]): -13%; Change in heart rate (Rattus norvegicus [17]): 22%; Change in heart rate (Rattus norvegicus [18]): 19%; Change in heart rate (Rattus norvegicus [19]): 25%; Change in heart rate (Rattus norvegicus [20]): 17%; Change in systolic BP (Rattus norvegicus [21]): -5%; Change in systolic BP (Rattus norvegicus [22]): -54%; Change in systolic BP (Rattus norvegicus [23]): -8%; Change in systolic BP (Rattus norvegicus [24]): -9%; Change in systolic BP (Rattus norvegicus [25]): -40%; Change in systolic BP (Rattus norvegicus [26]): -18%; Change in systolic BP (Rattus norvegicus [27]): -3%; inhibition in vivo at 50 mg/kg (Rattus norvegicus [28]): 96.5%; inhibition in vivo at 50 mg/kg (Rattus norvegicus [29]): 94.7%; inhibition in vivo at 50 mg/kg (Rattus norvegicus [30]): 95.9%; Change in systolic BP (Rattus norvegicus [31]): 1%; Change in systolic BP (Rattus norvegicus [32]): -1%; Change in systolic BP (Rattus norvegicus [33]): -5%; Change in systolic BP (Rattus norvegicus [34]): -1%; pIC50 (Thromboxane-A synthase): 5.92; Change in systolic BP (Rattus norvegicus [35]): -21%; Ratio (Homo sapiens [36]): 5.3; Ratio (Homo sapiens [37]): 4.7; Change in heart rate (Rattus norvegicus [38]): 1%; survival at 12 mg/kg (Mus musculus [39]): 70%; TXB2 level at 5 µM (Homo sapiens [40]): 12.3%
